Legend:
[1] = molecular target: T1, JAK1 (Homo sapiens, UniProt P23458); assay: Biochemical JAK1 kinase assay (LanthaScreen); conditions: for Ki: read-out: JAK 1 (pKi) (converted)
T1 construct: GST; purchased Life Technologies
Procedure, shortened: (§1)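 Recombinant GST-tagged JAK enzymes with GFP-STAT1 peptide substrate in 50 mM HEPES pH 7.5, 10 mM MgCl2, 1 mM EGTA, 0.01% Brij-35; compounds pre-incubated 1 h, then ATP added, 1 h reaction at ambient temperature. TR-FRET (Tb-anti-pSTAT1 pTyr701, 520/495 nm) after EDTA stop; IC50 by 4-parameter fit, converted to pKi via Cheng-Prusoff.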

[2] = molecular target: T2, JAK2 (Homo sapiens, UniProt O60674); assay: Biochemical JAK2 kinase assay (LanthaScreen); conditions: for Ki: read-out: JAK 2 (pKi) (converted)
T2 construct: GST; purchased Life Technologies
Procedure, shortened: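 pKi values derive from pIC50 via Cheng-Prusoff, with IC50 from a 4-parameter fit of percent-inhibition TR-FRET data using Tb-anti-pSTAT1 (pTyr701) detection. Compound, GST-JAK2 and GFP-STAT1 substrate were pre-incubated 1 h, then ATP started a 1 h ambient reaction (HEPES pH 7.5, 10 mM MgCl2, 1% DMSO).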

[3] = molecular target: T3, Tyk2 (Homo sapiens, UniProt P29597); assay: Biochemical Tyk2 kinase assay (LanthaScreen); conditions: for Ki: read-out: Tyk 2 (pKi) (converted)
T3 construct: GST; purchased Life Technologies
Procedure, shortened: as §1

[4] = tested on: IL-2 stimulated pSTAT5 in Tall-1 T cells; assay: Cellular JAK3 potency assay: inhibition of IL-2 stimulated pSTAT5 in Tall-1 T cells; type: cell-based, human; conditions: for Tall-1 (pIC50): IL-2 stimulated pSTAT5 in Tall-1 T cells; for IC50: Homo sapiens, TALL-1, IL-2 stimulated pSTAT5 in Tall-1 T cells, read-out: Tall-1 (pIC50) (converted)
Procedure, shortened: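 Tall-1 human T cells were preincubated with compound for 1 h at 37° C, then stimulated with IL-2 (300 ng/ml final) for 30 min. STAT5 phosphorylation in lysates was read by AlphaLisa bead emission, and IC50 from inhibition curves is given as pIC50 (mean±SD).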

[5] = molecular target: T4, JAK3 (Homo sapiens, UniProt P52333); assay: Biochemical JAK3 kinase assay (LanthaScreen); set-up: GST; purchased Life Technologies; conditions: for JAK3 (pKi)-JAK1 (pKi): selectivity: difference of pKi JAK3 and pKi JAK1; for Ki: read-out: JAK 3 (pKi) (converted)
T4 sequence (P52333 1-1124): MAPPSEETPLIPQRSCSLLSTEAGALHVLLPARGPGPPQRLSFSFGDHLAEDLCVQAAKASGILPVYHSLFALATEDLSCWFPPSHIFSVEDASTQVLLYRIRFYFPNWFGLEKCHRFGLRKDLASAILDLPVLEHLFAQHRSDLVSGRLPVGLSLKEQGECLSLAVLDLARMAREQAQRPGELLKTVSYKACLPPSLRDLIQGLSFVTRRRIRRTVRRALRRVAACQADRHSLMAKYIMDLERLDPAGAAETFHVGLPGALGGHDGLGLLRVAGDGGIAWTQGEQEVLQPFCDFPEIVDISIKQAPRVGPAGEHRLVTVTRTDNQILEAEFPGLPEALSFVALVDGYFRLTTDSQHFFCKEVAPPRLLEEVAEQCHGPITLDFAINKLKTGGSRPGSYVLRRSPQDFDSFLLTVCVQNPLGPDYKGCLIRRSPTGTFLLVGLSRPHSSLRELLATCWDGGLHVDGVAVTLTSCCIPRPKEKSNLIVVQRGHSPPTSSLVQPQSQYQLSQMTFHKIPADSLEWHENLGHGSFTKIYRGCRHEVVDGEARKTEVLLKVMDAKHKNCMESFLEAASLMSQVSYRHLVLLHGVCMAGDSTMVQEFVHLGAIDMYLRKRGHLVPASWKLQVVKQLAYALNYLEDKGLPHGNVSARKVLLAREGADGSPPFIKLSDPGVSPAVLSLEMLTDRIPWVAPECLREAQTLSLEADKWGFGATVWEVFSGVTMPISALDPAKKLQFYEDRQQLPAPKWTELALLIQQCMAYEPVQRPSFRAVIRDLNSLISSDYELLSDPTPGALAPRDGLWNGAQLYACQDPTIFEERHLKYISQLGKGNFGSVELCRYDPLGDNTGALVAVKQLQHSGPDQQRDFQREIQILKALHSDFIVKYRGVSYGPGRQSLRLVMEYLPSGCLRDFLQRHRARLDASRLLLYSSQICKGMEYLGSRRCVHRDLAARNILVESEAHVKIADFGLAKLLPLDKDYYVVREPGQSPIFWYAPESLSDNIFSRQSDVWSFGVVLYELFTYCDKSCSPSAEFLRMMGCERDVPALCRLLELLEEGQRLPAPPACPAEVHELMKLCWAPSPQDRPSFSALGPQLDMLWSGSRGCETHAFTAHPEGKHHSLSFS
Procedure, shortened: as §1

T2 sequence (O60674 whole entry): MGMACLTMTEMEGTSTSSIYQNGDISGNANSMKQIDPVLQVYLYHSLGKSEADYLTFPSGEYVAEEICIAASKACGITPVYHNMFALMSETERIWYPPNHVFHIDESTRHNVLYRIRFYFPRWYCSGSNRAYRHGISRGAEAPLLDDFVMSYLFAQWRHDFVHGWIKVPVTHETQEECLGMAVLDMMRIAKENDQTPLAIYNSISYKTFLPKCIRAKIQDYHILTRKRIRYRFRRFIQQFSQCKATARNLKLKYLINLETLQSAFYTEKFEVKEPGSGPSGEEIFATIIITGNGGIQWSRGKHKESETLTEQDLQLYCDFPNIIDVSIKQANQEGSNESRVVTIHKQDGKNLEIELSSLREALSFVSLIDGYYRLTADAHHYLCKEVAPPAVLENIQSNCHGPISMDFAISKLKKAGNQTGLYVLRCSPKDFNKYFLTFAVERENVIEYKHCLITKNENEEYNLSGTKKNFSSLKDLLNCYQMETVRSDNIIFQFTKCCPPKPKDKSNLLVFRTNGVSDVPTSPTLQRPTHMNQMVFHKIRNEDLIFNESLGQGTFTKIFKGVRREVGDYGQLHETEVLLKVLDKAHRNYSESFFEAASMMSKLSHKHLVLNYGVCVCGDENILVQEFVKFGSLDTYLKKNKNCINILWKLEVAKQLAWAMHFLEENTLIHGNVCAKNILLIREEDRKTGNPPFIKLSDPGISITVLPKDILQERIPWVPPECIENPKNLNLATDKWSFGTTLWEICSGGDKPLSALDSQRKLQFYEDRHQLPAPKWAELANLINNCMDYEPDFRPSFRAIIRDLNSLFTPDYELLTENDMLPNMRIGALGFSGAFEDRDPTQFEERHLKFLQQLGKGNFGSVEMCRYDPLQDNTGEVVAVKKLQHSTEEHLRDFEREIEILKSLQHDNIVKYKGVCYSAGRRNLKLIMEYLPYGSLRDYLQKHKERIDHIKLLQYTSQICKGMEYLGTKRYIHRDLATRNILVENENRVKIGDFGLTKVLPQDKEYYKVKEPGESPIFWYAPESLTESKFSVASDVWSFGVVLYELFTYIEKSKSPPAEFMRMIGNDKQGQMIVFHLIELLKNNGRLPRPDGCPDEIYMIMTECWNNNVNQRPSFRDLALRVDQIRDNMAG
T1 sequence (P23458 whole entry): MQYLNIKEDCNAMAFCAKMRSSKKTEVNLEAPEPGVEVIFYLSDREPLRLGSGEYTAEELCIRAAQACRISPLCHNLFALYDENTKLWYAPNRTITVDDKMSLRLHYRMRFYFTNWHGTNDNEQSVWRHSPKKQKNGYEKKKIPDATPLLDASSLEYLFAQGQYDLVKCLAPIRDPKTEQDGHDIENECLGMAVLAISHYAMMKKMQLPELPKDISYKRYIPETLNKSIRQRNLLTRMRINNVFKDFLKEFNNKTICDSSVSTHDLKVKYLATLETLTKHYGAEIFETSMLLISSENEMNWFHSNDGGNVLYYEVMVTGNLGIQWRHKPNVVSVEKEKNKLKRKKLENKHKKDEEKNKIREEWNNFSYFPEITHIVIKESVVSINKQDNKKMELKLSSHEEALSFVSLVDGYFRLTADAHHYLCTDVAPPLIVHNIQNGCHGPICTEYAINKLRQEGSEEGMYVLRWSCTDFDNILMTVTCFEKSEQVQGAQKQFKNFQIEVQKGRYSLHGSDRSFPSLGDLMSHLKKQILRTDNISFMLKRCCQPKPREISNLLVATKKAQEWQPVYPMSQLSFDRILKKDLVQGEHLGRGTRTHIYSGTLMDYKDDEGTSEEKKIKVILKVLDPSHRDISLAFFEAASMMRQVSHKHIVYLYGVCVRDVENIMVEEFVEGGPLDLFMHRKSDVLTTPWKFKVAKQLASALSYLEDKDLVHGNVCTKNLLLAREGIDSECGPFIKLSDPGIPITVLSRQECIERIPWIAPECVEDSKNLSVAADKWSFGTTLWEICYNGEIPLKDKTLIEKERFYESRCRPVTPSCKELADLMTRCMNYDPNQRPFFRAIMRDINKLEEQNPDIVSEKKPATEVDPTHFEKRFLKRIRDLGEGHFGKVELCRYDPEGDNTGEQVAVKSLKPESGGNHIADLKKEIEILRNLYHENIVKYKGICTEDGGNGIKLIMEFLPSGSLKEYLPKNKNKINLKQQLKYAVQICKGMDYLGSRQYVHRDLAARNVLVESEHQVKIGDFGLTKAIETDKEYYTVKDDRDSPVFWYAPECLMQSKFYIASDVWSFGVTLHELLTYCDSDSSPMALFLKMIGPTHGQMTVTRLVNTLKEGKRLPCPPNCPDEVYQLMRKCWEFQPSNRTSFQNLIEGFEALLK
T3 sequence (P29597 whole entry): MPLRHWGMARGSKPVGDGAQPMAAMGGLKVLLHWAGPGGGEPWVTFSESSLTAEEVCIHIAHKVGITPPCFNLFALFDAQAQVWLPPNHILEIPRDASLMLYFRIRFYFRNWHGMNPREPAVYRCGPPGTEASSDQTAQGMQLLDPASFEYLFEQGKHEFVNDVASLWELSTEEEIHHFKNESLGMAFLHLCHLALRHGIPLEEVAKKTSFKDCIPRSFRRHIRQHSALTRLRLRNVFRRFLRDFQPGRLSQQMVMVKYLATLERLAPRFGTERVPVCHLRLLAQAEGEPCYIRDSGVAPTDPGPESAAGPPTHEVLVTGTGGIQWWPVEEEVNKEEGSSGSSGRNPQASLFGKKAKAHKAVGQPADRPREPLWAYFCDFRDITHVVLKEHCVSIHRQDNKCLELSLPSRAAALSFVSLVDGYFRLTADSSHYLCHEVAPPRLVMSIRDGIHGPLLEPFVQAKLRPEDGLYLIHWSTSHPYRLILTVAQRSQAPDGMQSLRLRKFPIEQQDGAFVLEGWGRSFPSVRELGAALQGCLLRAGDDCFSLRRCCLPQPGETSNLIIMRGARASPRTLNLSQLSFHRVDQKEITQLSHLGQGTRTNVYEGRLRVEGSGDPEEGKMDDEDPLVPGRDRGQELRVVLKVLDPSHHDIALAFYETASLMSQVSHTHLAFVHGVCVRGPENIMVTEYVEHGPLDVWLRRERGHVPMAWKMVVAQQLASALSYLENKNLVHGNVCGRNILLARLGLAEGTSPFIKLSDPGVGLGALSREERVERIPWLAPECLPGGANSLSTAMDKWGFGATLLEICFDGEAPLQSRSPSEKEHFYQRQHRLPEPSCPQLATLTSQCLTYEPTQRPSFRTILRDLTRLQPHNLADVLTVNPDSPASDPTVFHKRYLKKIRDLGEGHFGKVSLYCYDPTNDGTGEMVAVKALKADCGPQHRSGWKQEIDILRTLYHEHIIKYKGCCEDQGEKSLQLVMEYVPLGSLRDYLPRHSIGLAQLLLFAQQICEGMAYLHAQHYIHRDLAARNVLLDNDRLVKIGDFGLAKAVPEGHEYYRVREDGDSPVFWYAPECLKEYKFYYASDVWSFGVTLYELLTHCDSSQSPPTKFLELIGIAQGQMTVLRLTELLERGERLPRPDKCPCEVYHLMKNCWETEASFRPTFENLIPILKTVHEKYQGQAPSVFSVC

SMILES | JAK 1 (pKi) [1] | JAK 2 (pKi) [2] | Tyk 2 (pKi) [3] | Tall-1 (pIC50) [4] | JAK 3 (pKi) [5] | JAK3 (pKi)-JAK1 (pKi) [5] | Ki [1] [µM] | Ki [2] [µM] | Ki [3] [µM] | IC50 [4] [µM] | Ki [5] [µM]
C=CC(=O)N1CC(COc2cc(-c3ccc(O)cc3)cc3[nH]ncc23)C1C (stereo not drawn) [Compound 3-114] | E (a pKi value of 7 or below (Ki of 100 nM or above)) | E (a pKi value of 7 or below (Ki of 100 nM or above)) | E (a pKi value of 7 or below (Ki of 100 nM or above)) | A (a pIC50 value≥7.5 (IC50≤32 nM)) | B (a pKi value between 9 and 10 (Ki between 1 nM and 0.1 nM)) | A (a value of 3 or above) |  |  |  |  | 
CN1CCC[C@H]1/C=C/C(=O)N1CC(COc2cc(-c3ccc(O)cc3)cc3[nH]ncc23)C1 [Compound 3-115] |  |  |  |  |  | A (a value of 3 or above) | > 0.1 | 0.0001 to 0.001 | > 0.1 | 0.0316 to 0.2 | 0.0001 to 0.001
CN(C/C=C/C(=O)N1CC(COc2cc(-c3ccc(O)cc3)cc3[nH]ncc23)C1)C(C)(C)C [Compound 3-116] |  |  |  |  |  | B (a value of 2.3 to 3) | > 0.1 | 0.01 to 0.1 | > 0.1 | 0.0316 to 0.2 | 0.0001 to 0.001
CN(C/C=C/C(=O)N1CC(COc2cc(-c3ccc(O)cc3)cc3[nH]ncc23)C1)C1CCC1 [Compound 3-117] |  |  |  |  |  | B (a value of 2.3 to 3) | > 0.1 | 0.01 to 0.1 | > 0.1 | 0.0316 to 0.2 | 0.0001 to 0.001
CC(C)CN(C)C/C=C/C(=O)N1CC(COc2cc(-c3ccc(O)cc3)cc3[nH]ncc23)C1 [Compound 3-118] |  |  |  |  |  | A (a value of 3 or above) | > 0.1 | > 0.1 | > 0.1 | < 0.0316 | 0.0001 to 0.001
COCCN(C)C/C=C/C(=O)N1CC(COc2cc(-c3ccc(O)cc3)cc3[nH]ncc23)C1 [Compound 3-119] |  |  |  |  |  | B (a value of 2.3 to 3) | > 0.1 | 0.01 to 0.1 | > 0.1 | 0.0316 to 0.2 | < 0.0001
COCCN(C/C=C/C(=O)N1CC(COc2cc(-c3ccc(O)cc3)cc3[nH]ncc23)C1)CCOC [Compound 3-120] |  |  |  |  |  | A (a value of 3 or above) | > 0.1 | 0.01 to 0.1 | > 0.1 | 0.0316 to 0.2 | < 0.0001
COC(CN(C)C/C=C/C(=O)N1CC(COc2cc(-c3ccc(O)cc3)cc3[nH]ncc23)C1)OC [Compound 3-121] |  |  |  |  |  | A (a value of 3 or above) | > 0.1 | 0.01 to 0.1 | > 0.1 | 0.0316 to 0.2 | 0.0001 to 0.001
CN(C)C/C=C\C(=O)N1CC(COc2cc(-c3ccc(O)c(Cl)c3)cc3[nH]ncc23)C1 [Compound 3-122] |  |  |  |  |  | A (a value of 3 or above) | > 0.1 | 0.01 to 0.1 | > 0.1 | < 0.0316 | < 0.0001
CSC1CCN(C/C=C/C(=O)N2CC(COc3cc(-c4ccc(O)cc4)cc4[nH]ncc34)C2)C1 (stereo not drawn) [Compound 3-125] |  |  |  |  |  | A (a value of 3 or above) | > 0.1 | > 0.1 | > 0.1 | 0.0316 to 0.2 | 0.0001 to 0.001
CCSCCNC/C=C/C(=O)N1CC(COc2cc(-c3ccc(O)cc3)cc3[nH]ncc23)C1 [Compound 3-126] |  |  |  |  |  | A (a value of 3 or above) | > 0.1 | 0.01 to 0.1 | > 0.1 | 0.2 to 1 | < 0.0001
COC1CCN(C/C=C/C(=O)N2CC(COc3cc(-c4ccc(O)cc4)cc4[nH]ncc34)C2)CC1 [Compound 3-127] |  |  |  |  |  | A (a value of 3 or above) | > 0.1 | 0.01 to 0.1 | > 0.1 | 0.0316 to 0.2 | < 0.0001
COC1CCCN(C/C=C/C(=O)N2CC(COc3cc(-c4ccc(O)cc4)cc4[nH]ncc34)C2)C1 (stereo not drawn) [Compound 3-128] |  |  |  |  |  | A (a value of 3 or above) | > 0.1 | 0.0001 to 0.001 | > 0.1 | 0.0316 to 0.2 | < 0.0001
CSC1CCN(C/C=C/C(=O)N2CC(COc3cc(-c4ccc(O)cc4)cc4[nH]ncc34)C2)CC1 [Compound 3-131] |  |  |  |  |  | B (a value of 2.3 to 3) | > 0.1 | 0.0001 to 0.001 | > 0.1 | < 0.0316 | 0.0001 to 0.001
COC1CN(C/C=C/C(=O)N2CC(COc3cc(-c4ccc(O)cc4)cc4[nH]ncc34)C2)C1 [Compound 3-132] |  |  |  |  |  | A (a value of 3 or above) | > 0.1 | > 0.1 | > 0.1 | 0.2 to 1 | 0.0001 to 0.001
COC1(C)CN(C/C=C/C(=O)N2CC(COc3cc(-c4ccc(O)cc4)cc4[nH]ncc34)C2)C1 [Compound 3-133] |  |  |  |  |  | A (a value of 3 or above) | > 0.1 | 0.01 to 0.1 | > 0.1 | 0.2 to 1 | < 0.0001
C=CC(=O)N1CC(CN(C)c2cc(-c3ccc(O)cc3)cc3[nH]ncc23)C1 [Compound 4-1] | E (a pKi value of 7 or below (Ki of 100 nM or above)) | E (a pKi value of 7 or below (Ki of 100 nM or above)) | E (a pKi value of 7 or below (Ki of 100 nM or above)) | B (a pIC50 value between 6.7 (included) and 7.5 (IC50 between 200 nM and 32 nM)) | B (a pKi value between 9 and 10 (Ki between 1 nM and 0.1 nM)) | A (a value of 3 or above) |  |  |  |  | 
C=CC(=O)N1CC(C)(CNc2cc(-c3ccc(O)cc3)cc3[nH]ncc23)C1 [Compound 4-2] | D (a pKi value between 7 and 8 (Ki between 100 nM and 10 nM)) | D (a pKi value between 7 and 8 (Ki between 100 nM and 10 nM)) | E (a pKi value of 7 or below (Ki of 100 nM or above)) | B (a pIC50 value between 6.7 (included) and 7.5 (IC50 between 200 nM and 32 nM)) | B (a pKi value between 9 and 10 (Ki between 1 nM and 0.1 nM)) | B (a value of 2.3 to 3) |  |  |  |  | 
CN(C)C/C=C/C(=O)N1CC(CN(C)c2cc(-c3ccc(O)c(Cl)c3)cc3[nH]ncc23)C1 [Compound 4-4] | E (a pKi value of 7 or below (Ki of 100 nM or above)) | E (a pKi value of 7 or below (Ki of 100 nM or above)) | E (a pKi value of 7 or below (Ki of 100 nM or above)) | B (a pIC50 value between 6.7 (included) and 7.5 (IC50 between 200 nM and 32 nM)) | A (a pKi value≥10 (Ki≤0.1 nM)) | A (a value of 3 or above) |  |  |  |  | 
C=CC(=O)N1CC(CN(C)c2cc(-c3ccc(O)c(Cl)c3)cc3[nH]ncc23)C1 [Compound 4-5] | E (a pKi value of 7 or below (Ki of 100 nM or above)) | E (a pKi value of 7 or below (Ki of 100 nM or above)) | E (a pKi value of 7 or below (Ki of 100 nM or above)) | A (a pIC50 value≥7.5 (IC50≤32 nM)) | B (a pKi value between 9 and 10 (Ki between 1 nM and 0.1 nM)) | A (a value of 3 or above) |  |  |  |  | 

— patent US10392368B2, “Pyrazolo and triazolo bicyclic compounds as JAK kinase inhibitors” (THERAVANCE BIOPHARMA R&D IP, LLC, priority 2017, dated 2019)
